In patent US20250170252A1, “QUINONE PROTECTED FORMS AND CONJUGATES” (CAMBRIDGE ENTERPRISE LIMITED, priority 2022, published 2025):

Columns and labels:
Assay type in all cases: cell-based
HL-60 = experiment: Toxicity with/without β-glucuronidase, HL-60; conditions: Homo sapiens, HL-60; read-out: IC50 β-lapachone, 1
Method: (§1) Assays assessing cytotoxicity of β-lapachone and derivatives were performed by CellTiter-Blue assay (Promega) according to the manufacturer's instructions. Briefly, adherent cancer-cell lines were plated at 20,000 cells/well in 96 well plates or suspension cell lines were plated at a concentration of 2×10^5 cells/mL in 24 well plates. Compound stocks in media were made by dilution of DMSO stocks containing the compound of interest to obtain a final in-plate DMSO concentration of only 0.1%. Incubation was performed for 48 h. Following incubation, media was replaced with media containing CellTiter-Blue (Promega) in 1:10 dilution and the plates were incubated for 1.5-4 h. The fluorescence of the plates was recorded (excitation 555 nm, emission 585 nm, MiniMax i3x Reader, Molecular Devices).
Cell viability was calculated by division of the fluorescence intensity of treated wells by that of the calculated average fluorescence intensity of replicate negative control wells containing cells with 0.1% DMSO only. Values and reported error bars represent the mean and standard error of the mean of three triplicate repeats for each concentration tested. IC50 values were calculated using GraphPad Prism 8 software.
The potential of compound 37a, glucuronide-PHB-BL, as a prodrug was investigated. As discussed above, at physiological pH the compound has a relatively slow-release rate. Toxicity of Gluc-PHB-BL 37a was tested against a range of cell lines with and without added β-glucuronidase. Addition of the enzyme mimics conditions of the solid tumour environment.

[1] = test system: Panc-1 pancreatic cancer cell line; experiment: CellTiter Glo viability assay, Panc-1; conditions: Homo sapiens; Panc-1, β-lapachone alone, 48 hours; read-out: IC50
Method: For CellTiter Glo viability assays, 10,000 cells per well were plated on Day 1 and were allowed to adhere to the plate surface for 24 hours. Optimized concentration ranges of prodrugs were determined and made via serial dilution. […] Cells were incubated with compound for 48 hours and viability was assessed on Day 4 using the CellTiter Glo Viability assay which measures metabolically active cells by quantifying the amount of ATP present.
Panc-1 cells were obtained from Tony Kouzarides' lab in the Gurdon Institute at the University of Cambridge and put into culture at passage 10 containing DMEM media (Gibco) supplemented with 1% Pen-Strep antibiotic (Gibco), 1% L-glutamine, and 10% fetal bovine serum (FBS, sterile-filtered). Aspc-1 cells were bought commercially from the American Type Culture Collection (ATCC) and put into culture containing RPMI 1640 media (Gibco) supplemented with 1% Pen-Strep antibiotic (Gibco), 1% L-glutamine, and 20% fetal bovine serum (FBS, sterile-filtered). All cell lines were started at passage 10 and passaged every 3 days by centrifuging at 1000 rpm for 4 minutes.

ovine blood = experiment: Methaemoglobin analysis in sheep's blood; conditions: after 1 h of incubation
Method: Defibrinated Oxoid™ sheep's blood (ThermoScientific) was diluted to a 5% v/v suspension in PBS pH 7.4. In a 96 well microtiter plate, 150 μL of blood suspension was added to 50 μL of serially diluted compound in PBS containing a 4× stock of each compound of interest. Serial dilution of compounds from DMSO stocks into PBS was performed to achieve an in-plate DMSO concentration of 0.1%. PBS buffer alone was used as a negative control. Three replicates were performed for each compound concentration analysed. The plate was incubated for the specified time at 37° C. The plate was then centrifuged at 3,500 rpm for 5 min. The supernatant was removed and cells lysed by resuspension in 100 μL of a solution of Triton-X-100 (1%) in PBS. Following this 80 μL of lysed cell contents were transferred to a second microtiter plate for UV measurement. To determine methaemoglobin increase, UV absorbance was measured immediately at 630 nm (MiniMax i3x Imager, Molecular Devices). Methaemoglobin increase was determined by (A630−A^0630)/(A^0630)×100, where A630 is the absorbance of the test well at 630 nm, and A^0630 is the absorbance of the negative control at 630 nm. Mean values and standard error of the mean of three independent replicates are plotted.

[2] = test system: HL-60 (leukaemia cell line); experiment: Viability assay (CellTiter-Blue), HL-60; conditions: Homo sapiens
Method: as §1, with “MiniMax i3x” left out, “Devices). Cell viability was calculated by division of the fluorescence intensity of treated wells by that of the calculated average fluorescence intensity of replicate negative control wells containing cells with 0.1% DMSO only. Values and reported error bars represent the mean and standard error of the mean of three triplicate repeats for each concentration tested.” for “Devices).”

[3] = test system: HCT-116 (colon cancer cell line); experiment: Viability assay (CellTiter-Blue), HCT-116; conditions: Homo sapiens
Method: as §1, with “MiniMax i3x” left out, “Devices). Cell viability was calculated by division of the fluorescence intensity of treated wells by that of the calculated average fluorescence intensity of replicate negative control wells containing cells with 0.1% DMSO only. Values and reported error bars represent the mean and standard error of the mean of three triplicate repeats for each concentration tested.” for “Devices).”

[4] = test system: range of cancer cell lines, including leukaemia, breast, colon, and cervical cancer; experiment: Toxicity to a range of cancer cell lines (panel); conditions: panel of cells
Method: as §1, with “MiniMax i3x” left out, “Devices). Cell viability was calculated by division of the fluorescence intensity of treated wells by that of the calculated average fluorescence intensity of replicate negative control wells containing cells with 0.1% DMSO only. Values and reported error bars represent the mean and standard error of the mean of three triplicate repeats for each concentration tested.” for “Devices).”

HL-60 cells = experiment: Lysosomal inhibition assay with small molecule prodrugs; conditions: HL-60, NH4Cl at 30 mM
Method: Assays to assess the effect of lysosomal activity on prodrugs were performed as follows: HL-60 cells were plated into 96 well plates at a concentration of 2.5×10^5 cells/mL in 180 μL media. Cells were treated with 10 μL of a stock of NH4Cl in PBS (to obtain an in-plate concentration of 3 or 30 mM), 10 μL of a dilution of a DMSO stock of E64d in PBS (to obtain an in-plate concentration of 30 μM), PBS only, or a dilution of DMSO in PBS. Cells were incubated for 30 min. Following this, 10 μL of a stock of test compound made by dilution of a DMSO stock into media was added. DMSO was present in-plate at a maximum of 0.2%. Cells were incubated overnight for 16 h. Following incubation, media was replaced with media containing CellTiter-Blue (Promega) in 1:4 dilution and the plates were incubated for 6 h. The fluorescence of the plates was recorded (excitation 555 nm, emission 585 nm, MiniMax i3x Reader, Molecular Devices). Cell viability was calculated by division of the fluorescence intensity of treated wells by that of the calculated average fluorescence intensity of the relevant negative control wells. Values and reported error bars represent the mean and standard error of the mean of three triplicate repeats for each concentration tested.

CC1(C)CCC2=C(O1)c1ccccc1C(=O)C2=O [Compound 1, β-lapachone, reference compound]
IC50 (HL-60): 4.33 µM
IC50 [1]: 2.04 µM
lowest dose concentration at which methaemoglobin formation is detectable (ovine blood): 10 µM
IC50 [2]: 1.4 µM
IC50 [3]: 1.1 µM
IC50 [4]: 1.1 to 4.2 µM
toxicity with NH4Cl (HL-60 cells): increase in toxicity
